Data reported in PMC6826492, “Experimental and Computational Study of the Antioxidative Potential of Novel Nitro and Amino Substituted Benzimidazole/Benzothiazole-2-Carboxamides with Antiproliferative Activity” (Antioxidants, 2019).
Counter-ions that a name gives are not always drawn. Like-named read-outs stand apart in the source and are kept apart here.

What was measured:
[1] = DPPH free radical scavenging; assay type: biochemical; parameters: key to DPPH IC50: –: Very low activity; conditions: after 30 min of incubation with 100 μM DPPH
Experimental: The reducing activity of investigated systems was achieved by the DPPH method according to previously described procedures with modifications to assure the use in a 96-well microplate. Briefly, equal volumes of various concentrations of tested molecules (dissolved in DMSO) were added to the solution of DPPH (final concentration 50 µM in absolute ethanol). Ethanol and DMSO were used as control solutions in line with earlier reports.

H 460 (lung carcinoma) = test: Antiproliferative activity in vitro (MTT assay); assay type: cell-based, human; conditions: 72 h incubation, concentration that causes 50% growth inhibition
Experimental: (§1) The experiments were performed on four human cell lines, including HCT 116 (colon carcinoma), H 460 (lung carcinoma), MCF-7 (breast carcinoma), and HEK 293 (human embryonic kidney cells), in line with previously published experimental procedures. Briefly, the cells were grown in DMEM medium with the addition of 10% fetal bovine serum (FBS), 2 mM L-glutamine, 100 U/mL penicillin, and 100 µg/mL streptomycin, and cultured as monolayers at 37 °C in a humidified atmosphere with 5% CO2. Cells were seeded at 2 × 10^3 cells/well in a standard 96-well microtiter plates and left to attach for 24 h. The next day, a test compound was added in five serial 10-fold dilutions. The rate of cell growth was evaluated after 72 h of incubation with MTT assays. The obtained results are expressed as IC50 values, calculated from the concentration-response curve using linear regression analysis by fitting the test concentrations that give PG values above and below the reference value (i.e., 50%). Each test was performed in quadruplicate in at least two individual experiments.

MCF-7 (breast carcinoma) = test: Antiproliferative activity in vitro (MTT assay); assay type: cell-based, human; conditions: 72 h incubation, concentration that causes 50% growth inhibition
Experimental: as §1

[2] = system: HCT 116 (colon carcinoma); test: Antiproliferative activity in vitro (MTT assay); assay type: cell-based, human; conditions: 72 h incubation, concentration that causes 50% growth inhibition, read-out: IC50 HCT116
Experimental: as §1

[3] = Ferric reducing/antioxidant power (FRAP assay); assay type: biochemical; parameters: key to FRAP: –: Very low activity; conditions: means ± standard deviation; absorbance at 593 nm
Experimental: The FRAP method was carried out according to previously described procedures with some modifications to be compatible with an assay on a 96-well microplate. All tests were done in triplicate, while the obtained results were averaged and reported as Fe^2+ equivalents (Fe^2+ µmol).
By using the FRAP assay, we investigated the reducing power of investigated systems, which was monitored by the corresponding changes in the absorbance at 593 nm. This method is based on the ability of systems to reduce the ferric tripyridyl triazine complex (TPTZ) to the ferrous state (Fe^2+), which can be seen by an intense blue color. […] Good reducing ability was shown by the trimethoxy substituted benzimidazole-2-carboxamide 14 bearing the amino group (1102.5 ± 14.1 mmolFe^2+/mmolC).

[4] = system: HEK 293 (human embryonic kidney cells); test: Cytotoxic activity on non-cancerous cells (MTT assay); assay type: cell-based; conditions: non-tumor cell line, 72 h incubation, MTT, concentration that causes 50% growth inhibition
Experimental: as §1

[5] = cited from earlier work; for N–H BDE: in water ref 48; for BDE: monocationic, in acetonitrile ref 39

Row | Compound | IC50 [1] | IC50 (H 460 (lung carcinoma); Homo sapiens, NCI-H460, 72 h) | IC50 ([2]; Homo sapiens, HCT-116, 72 h) | DPPH IC50 [1] | IC50 (MCF-7 (breast carcinoma); Homo sapiens, MCF7, 72 h) | FRAP [3] | further results
1 | COc1ccc(C(=O)Nc2nc3ccc([N+](=O)[O-])cc3s2)c(OC)c1 [Compound 10, 2,4-dimethoxy-N-(6-nitrobenzothiazol-2-yl)benzamide] |  | 20 ± 3 µM | 9 ± 7 µM | – | 5 ± 2 µM | – | IC50 ([4]; Homo sapiens, HEK293): 5 ± 1 µM
2 | Nc1ccccc1 [aniline] |  |  |  |  |  |  | N–H BDE [5]: 89.1 kcal/mol
3 | Nc1ccc2nc(NC(=O)c3ccccc3O)[nH]c2c1 [Compound 30, N-[5(6)-aminobenzimidazol-2-yl]-2-hydroxybenzamide] | 42.5 ± 0.5 µM | > 100 µM | 46 ± 0.2 µM |  | 30 ± 0.8 µM | 272.6 ± 7.1 mmolFe^2+/mmolC | 
4 | COc1cc(C(=O)Nc2nc3ccc(N)cc3s2)cc(OC)c1OC [Compound 17, N-(6-aminobenzothiazol-2-yl)-3,4,5-trimethoxybenzamide] | 40.4 ± 0.4 µM |  | 28 ± 4 µM |  |  | 235.4 ± 2.8 mmolFe^2+/mmolC | IC50 (H 460 (lung carcinoma)): ≥ 100 µM; IC50 (MCF-7 (breast carcinoma)): 5 ± 3 µM
5 | COc1ccccc1C(=O)Nc1nc2ccc(N)cc2s1 [Compound 15, N-(6-aminobenzothiazol-2-yl)-2-methoxybenzamide] |  | 3 ± 0.9 µM | 6 ± 4 µM | – | 3 ± 2 µM | 163.4 ± 4.7 mmolFe^2+/mmolC | 
6 | COc1ccc(C(=O)Nc2nc3ccc([N+](=O)[O-])cc3s2)c(O)c1 [Compound 28, 2-hydroxy-4-methoxy-N-(6-nitrobenzothiazol-2-yl)benzamide] |  | 8 ± 1 µM | 7 ± 0.4 µM | – | 10 ± 8 µM | 39.8 ± 1.6 mmolFe^2+/mmolC | IC50 ([4]; Homo sapiens, HEK293): 4 ± 2 µM
7 | COc1cc(C(=O)Nc2nc3cc(N)ccc3[nH]2)cc(OC)c1OC.Cl [Compound 20, N-(6-aminobenzimidazol-2-yl)-3,4,5-trimethoxybenzamide hydrochloride] | 8.06 ± 0.03 µM | > 100 µM | ≥ 100 µM |  | 34 ± 30 µM | 267.4 ± 1.4 mmolFe^2+/mmolC | 
8 | CN [Me–NH3^+] |  |  |  |  |  |  | BDE [5]: 114.6 kcal/mol
9 | COc1cc(C(=O)Nc2nc3ccc(N)cc3s2)cc(OC)c1OC.Cl [Compound 23, N-(6-aminobenzothiazol-2-yl)-3,4,5-trimethoxybenzamide hydrochloride] | 1.5 ± 0.5 µM |  |  |  |  | 241.3 ± 1.6 mmolFe^2+/mmolC | IC50 (H 460 (lung carcinoma)): 34 ± 9 µM; IC50 [2]: 50 ± 11 µM
10 | Oc1ccccc1 [phenol] |  |  |  |  |  |  | calculated BDE [5]: 82.9 kcal/mol
11 | COc1ccc(N)cc1 [4-OMe-aniline] |  |  |  |  |  |  | N–H BDE [5]: 87.2 kcal/mol
12 | O=C(Nc1nc2ccc([N+](=O)[O-])cc2[nH]1)c1ccccc1O [Compound 24, 2-hydroxy-N-[5(6)-nitrobenzimidazol-2-yl]benzamide] |  | 42 ± 20 µM | 61 ± 0.1 µM | – | 42 ± 7 µM | 39.1 ± 2.0 mmolFe^2+/mmolC | 
13 | O=C(Nc1nc2ccc([N+](=O)[O-])cc2s1)c1ccccc1O [Compound 27, 2-hydroxy-N-(6-nitrobenzothiazol-2-yl)benzamide] |  | 3 ± 0.2 µM | 6 ± 1 µM | – | 2 ± 0.6 µM | – | IC50 ([4]; Homo sapiens, HEK293): 3 ± 1 µM
14 | Oc1cccc(O)c1O [1,2,3-trihydroxybenzene] |  |  |  |  |  |  | calculated BDE lower than that for its 1,3,5-trihydroxy analogue ([5]; in toluene ref 46): 15 kcal mol^−1
15 | Nc1ccccc1 [Ph–NH3^+] |  |  |  |  |  |  | BDE [5]: 84.9 kcal/mol
16 | COc1ccccc1C(=O)Nc1nc2ccc([N+](=O)[O-])cc2s1 [Compound 9, 2-methoxy-N-(6-nitrobenzothiazol-2-yl)benzamide] |  | 46 ± 3 µM | 44 ± 25 µM | – | 9 ± 1 µM | 6.7 ± 0.6 mmolFe^2+/mmolC | 
17 | COc1ccccc1C(=O)Nc1nc2ccc([N+](=O)[O-])cc2[nH]1 [Compound 6, 2-methoxy-N-[5(6)-nitrobenzimidazol-2-yl]benzamide] |  | 6 ± 5 µM | 6 ± 1 µM | – ^c | 4 ± 0.3 µM | 123.5 ± 2.8 mmolFe^2+/mmolC | IC50 ([4]; Homo sapiens, HEK293): 3 ± 0.6 µM
18 | COc1cc(C(=O)Nc2nc3ccc([N+](=O)[O-])cc3s2)cc(OC)c1OC [Compound 11, 3,4,5-trimethoxy-N-(6-nitrobenzothiazol-2-yl)benzamide] |  | 23 ± 4 µM | 37 ± 0.8 µM | – | 17 ± 9 µM | 155.5 ± 3.0 mmolFe^2+/mmolC | 
19 | COc1cc([C@@H]2c3cc4c(cc3[C@@H](O[C@@H]3O[C@@H]5CO[C@@H](C)O[C@H]5[C@H](O)[C@H]3O)[C@H]3COC(=O)[C@H]23)OCO4)cc(OC)c1O [Etoposide, reference compound] |  | 0.1 ± 0.04 µM | 5 ± 2 µM |  | 1 ± 0.7 µM |  | IC50 ([4]; Homo sapiens, HEK293): 1.6 ± 0.4 µM

Continued, in another order:

Row | IC50 [1] | IC50 (H 460 (lung carcinoma); Homo sapiens, NCI-H460, 72 h) | IC50 ([2]; Homo sapiens, HCT-116, 72 h) | DPPH IC50 [1] | IC50 (MCF-7 (breast carcinoma); Homo sapiens, MCF7, 72 h) | Compound | FRAP [3] | further results
20 | 28.9 ± 1.03 µM | 39 ± 11 µM | 48 ± 4 µM |  |  | COc1ccccc1C(=O)Nc1nc2ccc(N)cc2[nH]1 [Compound 12, N-[5(6)-aminobenzimidazol-2-yl]-2-methoxybenzamide] | 256.3 ± 2.8 mmolFe^2+/mmolC | IC50 (MCF-7 (breast carcinoma)): 53 ± 9 µM
21 | 9.2 ± 0.6 µM | 75 ± 27 µM | 37 ± 7 µM |  | ≥ 100 µM | COc1ccc(C(=O)Nc2nc3ccc(N)cc3[nH]2)c(O)c1 [Compound 31, N-[5(6)-aminobenzimidazol-2-yl]-2-hydroxy-4-methoxybenzamide] | 258.4 ± 6.4 mmolFe^2+/mmolC | 
22 | 4 ± 0.04 µM |  |  |  |  | COc1ccc(C(=O)Nc2nc3ccc(N)cc3s2)c(OC)c1.Cl [Compound 22, N-(6-aminobenzothiazol-2-yl)-2,4-dimethoxybenzamide hydrochloride] | 244.2 ± 3.0 mmolFe^2+/mmolC | IC50 [4]: 11 ± 1 µM; IC50 (H 460 (lung carcinoma)): 50 ± 8 µM; IC50 (MCF-7 (breast carcinoma)): 3 ± 0.2 µM; IC50 [2]: 8 ± 2 µM
23 |  | 4 ± 2 µM | 3 ± 0.2 µM | – | 2 ± 0.9 µM | COc1ccc(C(=O)Nc2nc3ccc([N+](=O)[O-])cc3[nH]2)c(OC)c1 [Compound 7, 2,4-dimethoxy-N-[5(6)-nitrobenzimidazol-2-yl]benzamide] | 139.6 ± 16.9 mmolFe^2+/mmolC | IC50 ([4]; Homo sapiens, HEK293): 2 ± 0.3 µM
24 | 9.85 ± 0.003 µM |  |  |  |  | COc1ccccc1C(=O)Nc1nc2ccc(N)cc2[nH]1 [Compound 18, N-[5(6)-aminobenzimidazol-2-yl]-2-methoxybenzamide hydrochloride] | 267.2 ± 5.0 mmolFe^2+/mmolC | IC50 (H 460 (lung carcinoma)): 36 ± 8 µM; IC50 (MCF-7 (breast carcinoma)): 23 ± 2 µM; IC50 [2]: 33 ± 7 µM
25 | 17.7 ± 2.81 µM |  |  |  | 20 ± 4 µM | COc1ccc(C(=O)Nc2nc3ccc(N)cc3[nH]2)c(OC)c1 [Compound 13, N-[5(6)-aminobenzimidazol-2-yl]-2,4-dimethoxybenzamide] | 238.4 ± 2.1 mmolFe^2+/mmolC | IC50 (H 460 (lung carcinoma)): 24 ± 8 µM; IC50 [2]: 17 ± 8 µM
26 |  | 43 ± 29 µM | 6 ± 1 µM | – | 5 ± 0.3 µM | COc1ccc(C(=O)Nc2nc3ccc(N)cc3s2)c(OC)c1 [Compound 16, N-(6-aminobenzothiazol-2-yl)-2,4-dimethoxybenzamide] | 203.6 ± 5.8 mmolFe^2+/mmolC | IC50 ([4]; Homo sapiens, HEK293): 11 ± 8 µM
27 | 29.5 ± 0.1 µM |  |  |  |  | COc1ccc(C(=O)Nc2nc3ccc(N)cc3[nH]2)c(O)c1 [Compound 32, N-[5(6)-aminobenzimidazol-2-yl]-2-hydroxy-4-methoxybenzamide] | 304.3 ± 6.4 mmolFe^2+/mmolC | IC50 (H 460 (lung carcinoma)): ≥ 100 µM; IC50 (MCF-7 (breast carcinoma)): 80 ± 4 µM; IC50 [2]: 50 ± 13 µM
28 | 13.3 ± 0.8 µM |  |  |  |  | COc1ccc(C(=O)Nc2nc3ccc(N)cc3[nH]2)c(OC)c1 [Compound 19, N-[5(6)-aminobenzimidazol-2-yl]-2,4-dimethoxybenzamide hydrochloride] | 259.1 ± 0.6 mmolFe^2+/mmolC | IC50 (H 460 (lung carcinoma)): > 100 µM; IC50 (MCF-7 (breast carcinoma)): 34 ± 24 µM; IC50 [2]: ≥ 100 µM
29 |  | 18 ± 0.01 µM | 31 ± 4 µM | – | 28 ± 6 µM | COc1ccc(C(=O)Nc2nc3ccc([N+](=O)[O-])cc3[nH]2)c(O)c1 [Compound 25, 2-hydroxy-4-methoxy-N-[5(6)-nitrobenzimidazol-2-yl]benzamide] | 150.4 ± 3.4 mmolFe^2+/mmolC | 
